# Compound: C[C@]1(c2nc3c(C(N)=O)cccc3[nH]2)CCCN1 [Veliparib]
# Assay: relative viability (nuclei count vs DMSO), 5 days (fraction); higher = more cells survive
# Conditions: 0.02 µM
# Procedure, shortened: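 After an overnight hold at 37 °C, lung cancer cell lines in 1536-well plates were pinned with five library-drug doses (not always all listed), each √10 from the next, on vehicle-anchored plates. The cells stayed 5 days without fresh medium, then a one-step fix, permeabilisation and Hoechst stain preceded 4× imaging and MetaXpress nuclear counts. A plate passed only with control CV under 25% and at least one doubling. Viability is the median, over plates, of treated-well nuclei relative to vehicle-well nuclei.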
row,Cell Line,relative viability
1,201T,0.901
2,NCI-H2228,0.909
3,LOU-NH91,0.941
4,NCI-H1666,0.943
5,NCI-H650,0.765
6,NCI-H1703,0.816
7,Calu-6,1
8,NCI-H1993,0.693
9,HCC-44,0.971
10,NCI-H647,1.02
11,NCI-H2126,0.986
12,NCI-H1755,1.02
13,PC-3 [JPC-3],1
14,NCI-H1792,0.825
15,NCI-H2087,0.854
16,HOP-62,0.934
17,NCI-H2170,0.989
18,NCI-H2347,1.08
19,HARA,0.858
20,NCI-H1915,0.949
21,SK-MES-1,1.03
22,NCI-H23,0.89
23,NCI-H661,0.963
24,CAL-12T,0.918
25,NCI-H1944,0.878
26,HCC-366,1.03

# Same assay, conditions: 0.06325 µM
row,Cell Line,relative viability
1,NCI-H1793,0.923
2,201T,0.926
3,NCI-H2228,1.08
4,LOU-NH91,0.893
5,NCI-H1666,0.976
6,NCI-H650,0.799
7,NCI-H1703,0.839
8,Calu-6,0.968
9,NCI-H1993,0.883
10,HCC-44,0.798
11,NCI-H647,0.945
12,NCI-H2126,0.926
13,NCI-H1755,0.957
14,PC-3 [JPC-3],0.968
15,NCI-H1792,0.694
16,NCI-H2087,0.97
17,HOP-62,0.909
18,NCI-H2170,0.954
19,NCI-H2347,0.936
20,HARA,0.939
21,NCI-H1355,0.835
22,NCI-H1915,0.881
23,SK-MES-1,0.939
24,NCI-H23,0.77
25,NCI-H661,0.918
26,CAL-12T,0.926
27,NCI-H1944,0.961
28,HCC-366,0.992
29,NCI-H322M,0.872

# Same assay, conditions: 0.2 µM
row,Cell Line,relative viability
1,NCI-H1793,0.904
2,201T,0.959
3,NCI-H2228,1.15
4,LOU-NH91,1.01
5,NCI-H1666,0.981
6,NCI-H650,0.834
7,NCI-H1703,0.852
8,Calu-6,0.935
9,NCI-H1993,0.87
10,HCC-44,0.958
11,NCI-H647,1.03
12,NCI-H2126,0.984
13,NCI-H1755,1.02
14,PC-3 [JPC-3],1.05
15,NCI-H1792,0.943
16,NCI-H2087,0.936
17,HOP-62,0.963
18,NCI-H2170,0.967
19,NCI-H2347,0.94
20,HARA,0.955
21,NCI-H1355,1.03
22,NCI-H1915,0.786
23,SK-MES-1,0.977
24,NCI-H23,0.948
25,NCI-H661,0.945
26,CAL-12T,0.981
27,NCI-H1944,0.765
28,HCC-366,1
29,NCI-H322M,1.07

# Same assay, conditions: 0.6325 µM
row,Cell Line,relative viability
1,NCI-H1793,0.865
2,201T,1.11
3,NCI-H2228,0.954
4,LOU-NH91,0.931
5,NCI-H1666,0.876
6,NCI-H650,0.783
7,NCI-H1703,0.878
8,Calu-6,0.905
9,NCI-H1993,1.05
10,HCC-44,1.01
11,NCI-H647,0.813
12,NCI-H2126,0.985
13,NCI-H1755,0.913
14,PC-3 [JPC-3],1.04
15,NCI-H1792,0.966
16,NCI-H2087,0.955
17,HOP-62,0.976
18,NCI-H2170,0.96
19,NCI-H2347,0.971
20,HARA,0.979
21,NCI-H1355,0.943
22,NCI-H1915,0.9
23,SK-MES-1,0.961
24,NCI-H23,0.951
25,NCI-H661,0.929
26,CAL-12T,0.9
27,NCI-H1944,0.789
28,HCC-366,1.01
29,NCI-H322M,0.963

# Same assay, conditions: 2 µM
row,Cell Line,relative viability
1,NCI-H1793,0.932
2,201T,1.01
3,NCI-H2228,0.932
4,LOU-NH91,0.992
5,NCI-H1666,0.937
6,NCI-H650,0.731
7,NCI-H1703,1.11
8,Calu-6,1
9,NCI-H1993,0.929
10,HCC-44,0.94
11,NCI-H647,1.03
12,NCI-H2126,0.999
13,NCI-H1755,0.963
14,PC-3 [JPC-3],1.06
15,NCI-H1792,0.718
16,NCI-H2087,1.05
17,HOP-62,1.02
18,NCI-H2170,0.991
19,NCI-H2347,0.898
20,HARA,0.915
21,NCI-H1355,0.944
22,NCI-H1915,0.928
23,SK-MES-1,1.03
24,NCI-H23,0.96
25,NCI-H661,1
26,CAL-12T,1.02
27,NCI-H1944,0.894
28,HCC-366,1.03

# — the supplement of paper PMC10307832
